In PMC8267945, “Plumbagin, a Natural Product with Potent Anticancer Activities, Binds to and Inhibits Dihydroorotase, a Key Enzyme in Pyrimidine Biosynthesis” (International Journal of Molecular Sciences, 2021):

What was measured:
ScDHOase [1] = target: T1, ScDHOase (Saccharomyces cerevisiae, UniProt P20051); assay: rapid spectrophotometric DHOase enzyme assay (hydrolysis of DHO); format: biochemical
T1 construct: made in house; host or cells: E. coli BL21(DE3)
Protocol: PLU (50 μM) was included in the standard assay for analyzing the enzyme activity under different substrate concentrations. […] Data points are an average of three determinations within the 10% error.
A rapid spectrophotometric assay was used to determine the activity of DHOase. Briefly, the hydrolysis of DHO was measured at 25 °C as the decrease in absorbance at 230 nm. The purified DHOase was added to a 2 mL solution containing 0.5 mM DHO and 100 mM Tris–HCl at pH 8.0 to start the reaction. The extinction coefficient of DHO was 0.92 mM^−1·cm^−1 at 230 nm. The hydrolysis of DHO was monitored using a UV/Vis spectrophotometer (Hitachi U 3300; Hitachi High-Technologies, Tokyo, Japan). A unit of activity was defined as the amount of enzyme catalyzing the hydrolysis of 1 μmol DHO/min, and the specific activity was expressed in terms of units of activity per mg of enzyme. The kinetic parameters Km and Vmax were determined from a nonlinear plot by fitting the hydrolyzing rate from individual experiments to the Michaelis–Menten equation (Enzyme Kinetics module of Sigma-Plot; Systat Software, Chicago, IL, USA).

ScDHOase [2] = target: T1, ScDHOase; assay: fluorescence quenching binding assay
Protocol: (§1) Figure 7 The data used to calculate the Kd values of various DHOases. (A) The fluorescence emission spectra of ScDHOase with PLU of different concentrations (0–200 μM; 0, 10, 20, 50, 75, 100, 125, 150, 175, and 200 μM). The decrease in intrinsic fluorescence of protein was measured at 324 nm upon excitation at 280 nm with a spectrofluorometer. […] (B) The fluorescence emission spectra of huDHOase with PLU of different concentrations (0–200 μM). (C) The fluorescence emission spectra of StDHOase with PLU of different concentrations. (D) The fluorescence emission spectra of ScDHOase–R18A with PLU of different concentrations. (E) The fluorescence emission spectra of ScDHOase–T106A with PLU of different concentrations. […] (F) An aliquot amount of PLU was added to the enzyme solution to determine the Kd. The Kd was obtained by the following equation: ΔF = ΔFmax − Kd(ΔF/[PLU]). Data points are an average of 2–3 determinations within a 10% error.
(§2) The decrease in the intrinsic fluorescence of DHOase was measured with a spectrofluorometer (Hitachi F-2700; Hitachi High-Technologies, Japan). The Kd was obtained using the following equation: ΔF = ΔFmax − Kd(ΔF/[PLU]).
(§3) The Kd value of the purified DHOase was determined using the fluorescence quenching method as previously described for DHOase, DHPase, and DnaB helicase. Briefly, an aliquot of the compound was added into the solution containing DHOase (1 μM) and 50 mM HEPES at pH 7.0. The decrease in the intrinsic fluorescence of DHOase was measured at 324 nm upon excitation at 280 nm and 25 °C with a spectrofluorometer (Hitachi F-2700; Hitachi High-Technologies, Japan). The Kd was obtained using the following equation: ΔF = ΔFmax − Kd(ΔF/[PLU]).

ScDHOase–R18A = target: T2, ScDHOase–R18A (Saccharomyces cerevisiae, UniProt P20051, R18A); assay: fluorescence quenching binding assay
T2 construct: made in house; host or cells: E. coli BL21(DE3)
Protocol: as §1, §2, §3

ScDHOase–T106A = target: T3, ScDHOase–T106A (Saccharomyces cerevisiae, UniProt P20051, T106A); assay: fluorescence quenching binding assay
T3 construct: made in house; host or cells: E. coli BL21(DE3)
Protocol: as §1, §2, §3

in vitro = format: cell-based, mouse; conditions: mouse; PLU 2 μM, 4T1 cells; read-out: Death rate (cell mortality)
Protocol: (§4) The 4T1 cells (1 × 10^4) were incubated with PLU in a 100 μL volume. After 24 h, the anticancer potentiality was estimated.

4T1 cells [3] = assay: in vitro; format: cell-based, mouse; conditions: 10 μM PLU, 24 h, 4T1 cells
Protocol: as §4

4T1 cells [4] = assay: wound-healing assay; format: cell-based, mouse
Protocol: The wound-healing assay was performed to study whether PLU can inhibit 4T1 cell migration. Briefly, 4T1 cells were seeded in 24-well plates, incubated in serum-reduced medium for 6 h, wounded in a line across the well with a 200 μL pipette tip, and washed twice with the serum-reduced medium. After different treatments, cells were incubated for 24 h to allow migration.

4T1 cells [5] = assay: clonogenic formation assay; format: cell-based, mouse
Protocol: A clonogenic formation assay was used to assess the 4T1 cell growth to study whether the PLU can inhibit 4T1 cell proliferation. Briefly, 4T1 cells were seeded at a density of 10^3 cells per well into 6-well plates and incubated overnight for attachment. After different treatments, plates were incubated for 5–7 days to allow clonogenic growth. After washing with PBS, colonies were fixed with methanol and stained with 0.5% crystal violet for 20 min, and the number of colonies was counted under a light microscope.

Klebsiella pneumoniae = assay: bacterial growth inhibition; format: cell-based; conditions: 100 μM PLU added at 0.5 OD600, 37 °C
Protocol: (§5) Figure 8 Anticancer and antibacterial activities of PLU. (A) The trypan blue assay—4T1 cells incubated with PLU (10 μM). After 24 h, the anticancer potentiality was estimated. (B) The wound-healing assay—4T1 cells were seeded in 24-well plates. Cells were incubated with PLU (10 μM) for 24 h to allow migration. (C) Hoechst staining assay—an amount of 10 μM PLU-induced apoptosis with DNA fragmentation was observed. […] (E) Effects of PLU on cell survival, migration and proliferation, and nuclear condensation—a concentration of 10 μM PLU was effective for anti-4T1 cancer cells. (F) PLU inhibited bacterial growth—K. pneumoniae and S. enterica serovar Typhimurium LT2 cells were grown to 0.5 OD600 at 37 °C, and then PLU was added into the medium. […] PLU may inhibit the pyrimidine biosynthesis, resulting in its antibacterial activities.
(§6) Similar to cancer cells, bacterial cells are rapidly reproducible, and their growth might be suppressed by PLU. To test whether PLU could inhibit bacterial growth, we grew Klebsiella pneumoniae and S. enterica serovar Typhimurium LT2 cells to 0.5 OD600 at 37 °C, and then added PLU into the medium. […] Thus, PLU was also effective for antipathogen chemotherapies. PLU may inhibit pyrimidine biosynthesis, resulting in antibacterial activities.

[6] = test system: S. enterica serovar Typhimurium LT2; assay: bacterial growth inhibition; format: cell-based; conditions: 100 μM PLU added at 0.5 OD600, 37 °C
Protocol: as §5, §6

T2 sequence (P20051 whole entry R18A): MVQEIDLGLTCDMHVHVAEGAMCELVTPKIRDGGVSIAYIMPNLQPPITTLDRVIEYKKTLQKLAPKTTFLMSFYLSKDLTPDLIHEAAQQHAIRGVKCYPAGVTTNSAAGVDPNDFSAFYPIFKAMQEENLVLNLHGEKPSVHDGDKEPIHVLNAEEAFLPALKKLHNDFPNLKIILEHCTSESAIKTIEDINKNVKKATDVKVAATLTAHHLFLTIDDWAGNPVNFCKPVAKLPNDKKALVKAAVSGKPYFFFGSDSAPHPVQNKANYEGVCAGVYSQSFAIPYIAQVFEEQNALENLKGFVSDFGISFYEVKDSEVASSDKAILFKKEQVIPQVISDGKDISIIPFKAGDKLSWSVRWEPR
T3 sequence (P20051 whole entry T106A): as the sequence (P20051 whole entry R18A) above, with A18R, T106A counted along it
T1 sequence (P20051 whole entry): as the sequence (P20051 whole entry R18A) above, with A18R counted along it

## CC1=CC(=O)c2c(O)cccc2C1=O [PLU, plumbagin]
ScDHOase [1]; PLU 50 μM, different substrate concentrations
  inhibition type (Lineweaver–Burk plot): competitive inhibitor
ScDHOase [1]; PLU 50 μM, without PLU 69.9 ± 1.0
  Vmax of ScDHOase in the presence of PLU: 64.1 ± 2.8 µmol/mg/min
ScDHOase [1]; PLU 200 μM
  decrease of the activity of ScDHOase: 66%
ScDHOase [2]
  Kd: 64.8 ± 1.6 µM
ScDHOase [2]; 200 μM compound, 324 nm, excitation 280 nm
  quenching of the intrinsic fluorescence of ScDHOase: 87.7%
ScDHOase [2]; PLU 0–200 μM
  λmax of ScDHOase emission: from 324 to 317.5
ScDHOase [2]; PLU 0–200 μM, blue shift
  λem shift of ScDHOase: 6.5 nm
ScDHOase–R18A
  Kd: 181 ± 5.9 µM
ScDHOase–R18A; PLU 0–200 μM
  quenching of ScDHOase–R18A: 75.1%
  λem shift of ScDHOase–R18A: 4.0 nm
  λmax of ScDHOase–R18A emission: from 324.5 to 320.5
ScDHOase–T106A
  Kd: 70.8 ± 2.6 µM
ScDHOase–T106A; PLU 0–200 μM
  quenching of ScDHOase–T106A: 90.0%
  λem shift of ScDHOase–T106A: 6.5 nm
  λmax of ScDHOase–T106A emission: from 328 to 321.5
In vitro
  mortality at 24 h, 2 μM: 8%
4T1 cells [3]
  cell deaths: 100%
4T1 cells [4]; Mus musculus, 10 μM PLU, 24 h, read-out: inhibition of cell migration
  inhibition at 10 µM: 97%
4T1 cells [4]; PLU 2 μM
  Migration rate: 84%
4T1 cells [5]; PLU 2 μM
  Colony count: 73%
4T1 cells [5]; pretreatment with 10 μM PLU
  suppression of proliferation and colony formation: 98%
Klebsiella pneumoniae
  growth of K. pneumoniae: significantly inhibited the growth
[6]
  growth of S. enterica serovar Typhimurium LT2: significantly inhibited the growth
